Assay results from article PMC5110648, “Coupled binding mechanism of three sodium ions and aspartate in the glutamate transporter homologue GltTk” (Nature Communications, 2016).

Biological target: T1, GltTk (Thermococcus kodakarensis, UniProt Q5JID0)
T1 construct: gene TK0986; C-terminally His8-tagged, pBAD24-derived plasmid, E. coli MC1061; purified in decyl maltoside; trimer
Assay: isothermal titration calorimetry; crystal structure […] Å
Assay type: binding
Conditions: eight Na+ concentrations (apparent affinity strongly Na+-dependent); 10 mM Hepes KOH pH 8, 100 mM KCl, 0.15% DM, 25 °C; transport substrate site

T1 sequence (Q5JID0 entry or part of it): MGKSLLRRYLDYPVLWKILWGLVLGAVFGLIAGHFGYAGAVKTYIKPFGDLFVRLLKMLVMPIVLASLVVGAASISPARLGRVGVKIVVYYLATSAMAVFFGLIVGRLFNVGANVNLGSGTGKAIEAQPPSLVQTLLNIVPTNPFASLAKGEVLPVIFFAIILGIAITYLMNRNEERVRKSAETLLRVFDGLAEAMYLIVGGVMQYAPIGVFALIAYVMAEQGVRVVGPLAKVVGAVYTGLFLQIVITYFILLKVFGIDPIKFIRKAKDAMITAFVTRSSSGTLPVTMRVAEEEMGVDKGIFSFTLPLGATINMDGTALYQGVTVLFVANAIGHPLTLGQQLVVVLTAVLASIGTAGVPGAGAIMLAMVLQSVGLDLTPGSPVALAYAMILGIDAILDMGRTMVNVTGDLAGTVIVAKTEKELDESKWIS

For `N[C@@H](CC(=O)O)C(=O)O` [L-aspartate], the Apparent affinity was “Apparent affinity of GltTk for aspartate as a function of Na^+ concentration”.
